Here are results for 15 molecules from US12358948B2, “Neurotensinergic agonists and methods of using same preventing or treating pain” (priority 2019, dated 2025).

pIC50: −log10 of the molar value. Like-named read-outs stand apart in the source and are kept apart here. *1 amine or outer side, *2 acyl side, *3 side chain or, on linkers, in order; H or OH if unused. Where a SMILES comes first, the peptide text is derived from it. Bridges are numbered along the chain shown (N, C = ends). [ ]: non-standard residue; d: D form. ξ: configuration not given here. Ala(9-anthryl) = N[C@@H](Cc1c2ccccc2cc2ccccc12)C(=O)O; ξαMeNle(6-ylidene) = CC(CCCC=[*:3])(N[*:1])C(=O)[*:2]; Ala(E-styryl) = N[C@@H](C/C=C/c1ccccc1)C(=O)O; Bpa = N[C@@H](Cc1ccc(C(=O)c2ccccc2)cc1)C(=O)O; X1 = O=C(C1C[C@@H]2CCCC[C@@H]2N1[*:1])[*:2]; Phe(4-Br) = N[C@@H](Cc1ccc(Br)cc1)C(=O)O; Ala(cPent) = N[C@@H](CC1CCCC1)C(=O)O; Bta = N[C@@H](Cc1csc2ccccc12)C(=O)O; 2Pal = N[C@@H](Cc1ccccn1)C(=O)O; 3Pal = N[C@@H](Cc1cccnc1)C(=O)O; Tic = O=C(O)[C@@H]1Cc2ccccc2CN1; dTic = O=C(O)[C@H]1Cc2ccccc2CN1; AllylGly = C=CC[C@H](N)C(=O)O; Aic = NC1(C(=O)O)Cc2ccccc2C1

The subject of assay [1] is Sprague-Dawley rats. Put plainly: Tail-flick test (acute thermal pain), intrathecal injection. Format: in vivo, rat. To be noted: 61 nmol/kg i.t. How it is done:
Rats were housed two per cage on Aspen shavings in a quiet room and kept on a 12 h light/dark cycle and allowed ad libitum access to food and water. The experimental procedures in this study were approved by the Animal Care Committee of Université de Sherbrooke and were in accordance with policies and directives of the Canadian Council on Animal Care.
Tail-flick test: The tail flick test was used as outcome measures heat-induced pain in animals and as indicators of a compound's analgesic efficacy.
Acute pain was assessed using the Tail flick test (Tail Flick Analgesia meterV2.00, Colombus Instruments, Columbus, Ohio, USA). Tail flick test measures sensitivity to a high-intensity light beam focused on the rat tail. The tail flick apparatus was set at a light intensity of 6 and a cutoff of 10 seconds. The latency to flick the tail out of the path of the light beam corresponds to the measure of pain sensitivity or analgesia.
Before testing, animals were individually acclimatized to manipulations and behavioral apparatus 5 min/day for three consecutive days. On the test day, latencies baseline measures were taken before drug injection to provide a mean baseline. The compounds were diluted in 0.9% saline at the desired dose. The effects of the compound or saline on thermal nociception were assessed every 10 min for up to 60 min following i.t. administration.
Moreover, tail flick latencies were converted into the percent maximal possible effect (% MPE) at the time of maximal peak of analgesia. % MPE were calculated according to the following formula: % MPE=[(Test latency)−(Saline latency)]/[(Cutoff)−(Saline latency)]×100. Data are expressed as mean±SEM of 5-8 animals for each dose.
Then, ED50 values were determined using the dose-response stimulation log(agonist) vs response (four parameters).
Data are expressed as mean±standard errors of the mean (SEM). All graphs and statistical analysis were performed using GraphPad Prism™ 7 (GraphPad software, La Jolla, CA, USA). […] A two-way ANOVA followed by Tukey's multiple comparisons test was used to determine the significant differences in changes in body temperature between different concentrations of compounds and saline (FIG. 9). The % MPE for the tail-flick test and the areas under the curve for the formalin test were analyzed using a one-way ANOVA followed by a Dunnett's multiple comparisons test to compare different concentrations of compounds and saline treatment (FIGS. 2B, 4B, 7A-B and 8B-D). […] Nonlinear regression using three parameters was performed for % of ileum relaxation and IC50 value was obtained from the resulting dose-response curve (FIG. 11). A difference in response was considered significant with p-values *p<0.05, **p<0.01, ***p<0.001 and **p<0.0001.

The target of assay [2] is T1, hNTS2 receptor (Homo sapiens, UniProt O95665).
T1 construct: membranes prepared from them
T1 sequence (O95665 whole entry): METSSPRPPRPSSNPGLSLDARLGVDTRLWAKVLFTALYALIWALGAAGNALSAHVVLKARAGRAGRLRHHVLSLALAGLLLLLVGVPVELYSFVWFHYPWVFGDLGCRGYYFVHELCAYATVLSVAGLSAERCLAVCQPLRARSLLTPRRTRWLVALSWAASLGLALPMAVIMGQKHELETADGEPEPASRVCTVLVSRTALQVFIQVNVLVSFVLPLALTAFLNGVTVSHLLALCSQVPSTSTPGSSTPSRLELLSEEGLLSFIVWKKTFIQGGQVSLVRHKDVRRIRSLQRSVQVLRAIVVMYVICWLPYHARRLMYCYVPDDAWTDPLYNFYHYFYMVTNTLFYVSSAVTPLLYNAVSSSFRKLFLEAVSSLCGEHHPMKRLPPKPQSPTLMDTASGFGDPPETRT
Put plainly: Competitive radioligand binding assay on the hNTS2 receptor. To be noted: for IC50: displacement of 125I-[Tyr3]-NT, read-out: IC50 NTS2 (converted); for IC50 / pIC50: membranes of 1321N1 cells expressing hNTS2; for Selectivity: ratio IC50 for NTS1 : IC50 for NTS2; for pIC50: IC50 NTS2, displacement of 125I-[Tyr3]-NT. An outline of the steps:
(§1)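 Membranes from CHO-K1 cells expressing hNTS1 (15 µg, […] ¹²⁵I-[Tyr³]-NT) or 1321N1 cells expressing hNTS2 (50 µg, […] radioligand) were incubated with analogues at 10⁻¹¹–10⁻⁴ M for 60 min at 25 °C in Tris-HCl pH 7.5/0.2% BSA. Filtration and γ-counting followed; nonspecific binding was defined with 10⁻⁵ M NT(8-13), and IC50 was obtained by one-site fit.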
In general terms: Displacement assays read how much labelled ligand stays bound in the presence of the test substance.

The target of assay [3] is T2, hNTS1 receptor (Homo sapiens, UniProt P30989).
T2 construct: membranes prepared from them
T2 sequence (P30989 whole entry): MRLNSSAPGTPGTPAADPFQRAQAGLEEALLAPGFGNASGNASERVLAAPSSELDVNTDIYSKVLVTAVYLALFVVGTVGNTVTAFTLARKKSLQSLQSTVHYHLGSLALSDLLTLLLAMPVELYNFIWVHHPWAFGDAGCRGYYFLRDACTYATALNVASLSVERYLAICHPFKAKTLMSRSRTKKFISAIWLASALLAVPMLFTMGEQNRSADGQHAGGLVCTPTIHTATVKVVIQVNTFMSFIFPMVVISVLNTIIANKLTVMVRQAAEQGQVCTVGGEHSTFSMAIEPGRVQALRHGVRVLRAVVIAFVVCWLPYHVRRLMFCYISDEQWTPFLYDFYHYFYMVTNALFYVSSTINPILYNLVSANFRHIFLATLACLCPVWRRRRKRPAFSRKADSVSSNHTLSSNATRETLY
Put plainly: Competitive radioligand binding assay on the hNTS1 receptor. To be noted: membranes of CHO-K1 cells expressing hNTS1. An outline of the steps:
as §1

[4] abbreviates: displacement of 125I-[Tyr3]-NT, read-out: IC50 NTS1.
The mark [5] stands for this setting: IC50 NTS1, displacement of 125I-[Tyr3]-NT.

Broadly, the IC50 is the concentration needed to halve the response being measured. One may read the pIC50 as −log10 of the IC50, conventionally taken in molar units.

For `CC(C)C[C@H](NC(=O)[C@H](Cc1ccc(O)cc1)NC(=O)[C@@H]1CC=CCCC(=O)N[C@@H](CCCCN)C(=O)N[C@@H](CCCCN)C(=O)N1)C(=O)O` [compound 60, c[K(Pentenoyl)KG(All)]YL], in assay [1] (rat), the “Acute pain (tail beam) (i.t.)” value is listed as “No effect (61 nmol/kg)”. In addition, in assay [2], the IC50 is 47 nM and the Selectivity is >2127.7. Moreover, in assay [3] (setting [4]), the pIC50 was < 4.00.
As for `CC(C)C[C@H](NC(=O)[C@H](Cc1ccc(Br)cc1)NC(=O)[C@@H]1CC=CC[C@H](N)C(=O)N[C@@H](CCCCN)C(=O)N[C@@H](CCCCN)C(=O)N1)C(=O)O` [compound 116, c[G(All)KKG(All)]F(4-bromo)L] (H-[AllylGly]KK[AllylGly][Phe(4-Br)]L-OH; staple 1-4), the “latency of the tail-flick reflex compared to baseline” value in assay [1] is “sustainably increased latency”. Also, in assay [2], the pIC50 was 7.81 and the Selectivity is >6443. Also, the negative-log IC50 (pIC50) in assay [3] (setting [5]) is < 4.00.
For `NCCCC[C@@H]1NC(=O)[C@H](CCCCN)NC(=O)[C@@H](N)CC=CC[C@@H](C(=O)N[C@@H](Cc2ccc(Br)cc2)C(=O)N[C@@H](CC2CCCC2)C(=O)O)NC1=O` [compound 127, c[G(All)KKG(All)]F(4-bromo)A(cyclopentyl)] (H-[AllylGly]KK[AllylGly][Phe(4-Br)][Ala(cPent)]-OH; staple 1-4) the same measures were “sustainably increased latency”, 8.70, 49505 and < 4.00.
For `CC1(C(=O)N[C@@H](Cc2ccc(O)cc2)C(=O)N[C@@H](CC2CCCC2)C(=O)O)CCCC=CC[C@H](N)C(=O)N[C@@H](CCCCN)C(=O)N[C@@H](CCCCN)C(=O)N1` (stereo partly drawn) [compound 128, c[G(All)KKG((S)-alpha-Me-(4-pentenyl))]YA(cyclopentyl)] (H-[AllylGly]KK[ξαMeNle(6-ylidene)]Y[Ala(cPent)]-OH; staple 1-4) the same measures were “sustainably increased latency”, 8.11, 12788 and < 4.00.
With `CC1(C(=O)N[C@@H](Cc2ccc(Br)cc2)C(=O)N[C@@H](CC2CCCC2)C(=O)O)CCCC=CC[C@H](N)C(=O)N[C@@H](CCCCN)C(=O)N[C@@H](CCCCN)C(=O)N1` (stereo partly drawn) [compound 133, c[G(All)KKG(alpha-Me-(4-pentenyl))]F(4-bromo)A (cyclopentyl)] (H-[AllylGly]KK[ξαMeNle(6-ylidene)][Phe(4-Br)][Ala(cPent)]-OH; staple 1-4), the “latency of the tail-flick reflex compared to baseline” value in assay [1] is “sustainably increased latency”. For the same molecule, in assay [2], the negative-log IC50 (pIC50) is 8.52 and the Selectivity came out at 33333. In addition, the negative logarithm of the IC50 (pIC50) in assay [3] (setting [5]) is < 4.00.
Regarding `CC(C)C[C@H](NC(=O)[C@H](Cc1ccc(C(=O)c2ccccc2)cc1)NC(=O)[C@@H]1CC=CC[C@H](N)C(=O)N[C@@H](CCCCN)C(=O)N[C@@H](CCCCN)C(=O)N1)C(=O)O` [compound 160, c[G(All)KKG(All)]F (benzoyl)L] (H-[AllylGly]KK[AllylGly][Bpa]L-OH; staple 1-4), the pIC50 in assay [2] was 6.94; in assay [3] (setting [5]), < 4.00. Further, the Selectivity in assay [2] is given as 2.
Regarding `CC(C)C[C@H](NC(=O)[C@H](C/C=C/c1ccccc1)NC(=O)[C@@H]1CC=CC[C@H](N)C(=O)N[C@@H](CCCCN)C(=O)N[C@@H](CCCCN)C(=O)N1)C(=O)O` [compound 161, c[G(All)KKG(All)]A(styryl) L] (H-[AllylGly]KK[AllylGly][Ala(E-styryl)]L-OH; staple 1-4), in assay [2], the IC50 was 131 nM and the Selectivity is given as 766. Moreover, the pIC50 in assay [3] (setting [4]) was < 4.00.
With `CC(C)C[C@H](NC(=O)[C@H](Cc1c2ccccc2cc2ccccc12)NC(=O)[C@@H]1CC=CC[C@H](N)C(=O)N[C@@H](CCCCN)C(=O)N[C@@H](CCCCN)C(=O)N1)C(=O)O` [compound 162, c[G(All)KKG(All)]A(anthryl-) L] (H-[AllylGly]KK[AllylGly][Ala(9-anthryl)]L-OH; staple 1-4), in assay [2], the pIC50 was 7.72 and the Selectivity is on record as 5249. In addition, the pIC50 in assay [3] (setting [5]) was < 4.00.
For `CC(C)C[C@H](NC(=O)[C@H]1Cc2ccccc2CN1C(=O)[C@@H]1CC=CC[C@H](N)C(=O)N[C@@H](CCCCN)C(=O)N[C@@H](CCCCN)C(=O)N1)C(=O)O` [compound 163, c[G(All)KKG(All)]G(Tic)L] (H-[AllylGly]KK[AllylGly][dTic]L-OH; staple 1-4), in assay [2], the IC50 is 10000 nM and the Selectivity was 10. The pIC50 in assay [3] (setting [4]) was < 4.00.
With `CC(C)C[C@H](NC(=O)C1(NC(=O)[C@@H]2CC=CC[C@H](N)C(=O)N[C@@H](CCCCN)C(=O)N[C@@H](CCCCN)C(=O)N2)Cc2ccccc2C1)C(=O)O` [compound 164, c[G(All)KKG(All)]G(indanyl)L] (H-[AllylGly]KK[AllylGly][Aic]L-OH; staple 1-4), in assay [2], the IC50 is 10000 nM and the Selectivity turned out to be 10. In addition, the pIC50 in assay [3] (setting [4]) is < 4.00.
For `CC(C)C[C@H](NC(=O)[C@H](Cc1ccccn1)NC(=O)[C@@H]1CC=CC[C@H](N)C(=O)N[C@@H](CCCCN)C(=O)N[C@@H](CCCCN)C(=O)N1)C(=O)O` [compound 165, c[G(All)KKG(All)]A(2-pyridyl)L] (H-[AllylGly]KK[AllylGly][2Pal]L-OH; staple 1-4) the same measures were 509 nM, 20 and < 4.00.
On the same counts, the results for `CC(C)C[C@H](NC(=O)C1C[C@@H]2CCCC[C@@H]2N1C(=O)[C@@H]1CC=CC[C@H](N)C(=O)N[C@@H](CCCCN)C(=O)N[C@@H](CCCCN)C(=O)N1)C(=O)O` (stereo partly drawn) [compound 166, c[G(All)KKG(All)p (octahydroindol)L] (H-[AllylGly]KK[AllylGly][X1]L-OH; staple 1-4) are 33.3 nM, 3006 and < 4.00.
For `CC(C)C[C@H](NC(=O)[C@@H]1Cc2ccccc2CN1C(=O)[C@@H]1CC=CC[C@H](N)C(=O)N[C@@H](CCCCN)C(=O)N[C@@H](CCCCN)C(=O)N1)C(=O)O` [compound 167, c[G(All)KKG(All)]G(Tic)*L*] (H-[AllylGly]KK[AllylGly][Tic]L-OH; staple 1-4), in assay [2], the IC50 was 96.2 nM and the Selectivity is reported as 1040. Further, the pIC50 in assay [3] (setting [4]) was < 4.00.
On to `CC(C)C[C@H](NC(=O)[C@H](Cc1csc2ccccc12)NC(=O)[C@@H]1CC=CC[C@H](N)C(=O)N[C@@H](CCCCN)C(=O)N[C@@H](CCCCN)C(=O)N1)C(=O)O` [compound 168, c[G(All)KKG(All)]A(3-benzothienyl)L] (H-[AllylGly]KK[AllylGly][Bta]L-OH; staple 1-4), for which, in assay [2], the IC50 is 102 nM and the Selectivity is listed as 979. The pIC50 in assay [3] (setting [4]) was < 4.00.
In the case of `CC(C)C[C@H](NC(=O)[C@H](Cc1cccnc1)NC(=O)[C@@H]1CC=CC[C@H](N)C(=O)N[C@@H](CCCCN)C(=O)N[C@@H](CCCCN)C(=O)N1)C(=O)O` [compound 169, c[G(All)KKG(All)]A(3-pyridyl)L] (H-[AllylGly]KK[AllylGly][3Pal]L-OH; staple 1-4), in assay [2], the IC50 is 234 nM and the Selectivity is recorded as 427. Also, in assay [3] (setting [4]), the pIC50 was < 4.00.
